Experimental data reported in patent publication US20140301980A1, “METHODS FOR THE TREATMENT OF PSORIATIC ARTHRITIS USING APREMILAST” (CELGENE CORPORATION, priority 2013, published 2014).

Key:
[1] = system: adult patients with active PsA; test: Phase III clinical study PALACE 3 in active psoriatic arthritis (PASI-75); type: in vivo, human; details: patients with psoriatic involvement of at least three percent BSA
Method: (§1) The safety and efficacy of apremilast was evaluated in three multi-center, randomized, double-blind, placebo-controlled trials (Studies PALACE 1, PALACE 2, and PALACE 3) of similar design. A total of 1493 adult patients with active PsA (≧3 swollen joints and ≧3 tender joints) despite prior or current treatment with disease-modifying antirheumatic drug (DMARD) therapy were randomized. […] One qualifying psoriatic skin lesion of at least 2 cm in diameter was required in PALACE 3. Previous treatment with a biologic, including TNF-blockers was allowed.
Across the 3 studies, patients were randomly assigned to placebo (n=496), apremilast 20 mg (n=500), or apremilast 30 mg (n=497) given orally twice daily. Patients were allowed to receive stable doses of concomitant methotrexate (MTX) (≦25 mg/week), sulfasalazine (SSZ) (≦2 g/day), leflunomide (LEF) (≦20 mg/day), low dose oral corticosteroids (equivalent to ≦10 mg of prednisone a day), and/or nonsteroidal anti-inflammatory drugs (NSAIDs) during the trial. […]
The primary endpoint was the percentage of patients achieving American College of Rheumatology (ACR) 20 response at Week 16. Placebo-controlled efficacy data were collected and analyzed through Week 24. […]
Patients with psoriatic involvement of at least three percent body surface area (BSA) were evaluated for Psoriatic Area and Severity Index (PASI)-75 responses. […]

[2] = system: adult patients with active PsA; test: Phase III clinical study PALACE 1 in active psoriatic arthritis; type: in vivo, human; details: for Patients achieving remission, DAS28(CRP) less than 2.6: N=168; for Physician's global assessment of disease activity, % Change (percent improvement) / Subject's assessment of pain, % Change (percent improvement) / Subject's global assessment of disease activity, % Change (percent improvement): VAS; for Number of swollen joints, % Change (percent improvement): scale 0-76; for Number of tender joints, % Change (percent improvement): scale 0-78; for Proportion of patients with ACR 20 response / Proportion of patients with ACR 50 response / Proportion of patients with ACR 70 response: N = 168
Method: as §1
(§2) Across the 3 studies, patients were randomly assigned to placebo (n=496), apremilast 20 mg (n=500), or apremilast 30 mg (n=497) given orally twice daily. Patients were allowed to receive stable doses of concomitant methotrexate (MTX) (≦25 mg/week), sulfasalazine (SSZ) (≦2 g/day), leflunomide (LEF) (≦20 mg/day), low dose oral corticosteroids (equivalent to ≦10 mg of prednisone a day), and/or nonsteroidal anti-inflammatory drugs (NSAIDs) during the trial. Treatment assignments were stratified based on small-molecule DMARD use at baseline. The patients who were therapeutic failures of >3 agents for PsA (small molecules or biologics), or >1 biologic TNF blocker were excluded.
(§3) The primary endpoint was the percentage of patients achieving American College of Rheumatology (ACR) 20 response at Week 16. Placebo-controlled efficacy data were collected and analyzed through Week 24. Patients with each subtype of PsA were enrolled across the 3 studies, including symmetric polyarthritis (62.0%), asymmetric oligoarthritis (26.9%), distal interphalangeal (DIP) joint arthritis (6.2%), arthritis mutilans (2.7%), and predominant spondylitis (2.1%). The median duration of PsA disease was 5 years. Patients received concomitant therapy with at least one DMARD (65.2%), MTX (54.5%), SSZ (9.0%), LEF (7.4%), low dose oral corticosteroids (13.9%), and NSAIDs (70.7%). Prior treatment with small-molecule DMARDs only was reported in 76.4% of patients and prior treatment with biologic DMARDs was reported in 22.4% of patients.

[3] = system: adult patients with active PsA; test: Phase III clinical studies PALACE 1-3, study not specified; type: in vivo, human
Method: as §1, §2, §3

[4] = system: patients with psoriatic arthritis (PsA); test: Phase II randomized, double-blind, placebo controlled, multicenter clinical study in psoriatic arthritis; details: for Subjects reporting a serious AE (SAE): 12 week study period
Method: A phase II, randomized, double-blind, placebo controlled, multicenter clinical study was performed in North America and Europe in patients with psoriatic arthritis (PsA). […] Mean duration of PsA was 7.8 years; mean tender joint count of 22, mean swollen joint count of 10 at baseline (Moll & Wright criteria). […] Stable doses of NSAIDs, corticosteroids (≦10 mg/day prednisone or equivalent), and methotrexate were allowed.

CCOc1cc([C@@H](CS(C)(=O)=O)N2C(=O)c3cccc(NC(C)=O)c3C2=O)ccc1OC [apremilast, (+)-2-[1-(3-ethoxy-4-methoxyphenyl)-2-methylsulfonylethyl]-4-acetylaminoisoindoline-1,3-dione]
Proportion of patients achieving PASI-75 ([1]; Week 16, 30 BID): 22.2%
Proportion of patients achieving PASI-75 ([1]; Week 24, 30 BID): 25.6%
Proportion of HAQ-DI responders (≧0.3 change from baseline) compared to placebo ([2]; Week 16): greater proportion
Patients achieving remission, DAS28(CRP) less than 2.6 ([2]; Week 16, 30 mg BID with or without DMARDs): 13.1%
CRP, % Change (percent improvement) ([2]; Week 16, 30 mg BID ± DMARDs): 12.40%
HAQ-DI score, % Change (percent improvement) ([2]; Week 16, 30 mg BID ± DMARDs): 20.00%
Physician's global assessment of disease activity, % Change (percent improvement) ([2]; Week 16, 30 mg BID ± DMARDs): 42.31%
Subject's assessment of pain, % Change (percent improvement) ([2]; Week 16, 30 mg BID ± DMARDs): 26.00%
Subject's global assessment of disease activity, % Change (percent improvement) ([2]; Week 16, 30 mg BID ± DMARDs): 20.29%
Number of swollen joints, % Change (percent improvement) ([2]; Week 16, 30 mg BID ± DMARDs): 50.00%
Number of tender joints, % Change (percent improvement) ([2]; Week 16, 30 mg BID ± DMARDs): 43.17%
ACR 20 response rate ([2]; Week 16, apremilast alone (29/62 patients)): 46.8%
ACR 20 response rate ([2]; Week 16, biologic-naive patients, concomitant with DMARD (51/124 patients)): 41.1%
ACR 20 response rate ([2]; Week 16, concomitant with DMARD (35/106 patients)): 33.0%
ACR 20 response rate ([2]; Week 16, previously treated with small molecule and/or biologic DMARD (11/41 patients)): 26.8%
Proportion of patients with ACR 20 response ([2]; Week 16, ± DMARDs): 38.1%
Proportion of patients with ACR 50 response ([2]; Week 16, ± DMARDs): 16.1%
Proportion of patients with ACR 70 response ([2]; Week 16, ± DMARDs): 4.2%
ACR 20 response rate ([2]; Week 24, 30 mg BID for up to 24 weeks, independent of response at Week 16): 43.5%
Patients achieving remission, DAS28(CRP) less than 2.6 ([2]; Week 24, 30 mg BID with or without DMARDs): 19.0%
CRP, % Change (percent improvement) ([2]; Week 24, 30 mg BID ± DMARDs): 8.45%
HAQ-DI score, % Change (percent improvement) ([2]; Week 24, 30 mg BID ± DMARDs): 20.00%
Physician's global assessment of disease activity, % Change (percent improvement) ([2]; Week 24, 30 mg BID ± DMARDs): 35.90%
Subject's assessment of pain, % Change (percent improvement) ([2]; Week 24, 30 mg BID ± DMARDs): 27.67%
Subject's global assessment of disease activity, % Change (percent improvement) ([2]; Week 24, 30 mg BID ± DMARDs): 23.92%
Number of swollen joints, % Change (percent improvement) ([2]; Week 24, 30 mg BID ± DMARDs): 50.00%
Number of tender joints, % Change (percent improvement) ([2]; Week 24, 30 mg BID ± DMARDs): 44.83%
Proportion of patients with ACR 20 response ([2]; Week 24, ± DMARDs): 35.1%
Proportion of patients with ACR 50 response ([2]; Week 24, ± DMARDs): 19.0%
Proportion of patients with ACR 70 response ([2]; Week 24, ± DMARDs): 10.1%
Change in mean HAQ-DI score from baseline ([2]; baseline to Week 16, p=0.0017 vs placebo): −0.244
Mental Component Summary score (MCS), mean change from baseline ([3]; human, in vivo): No worsening
SF-36v2 physical functioning domain and physical component summary score, change from baseline compared to placebo ([3]; human, in vivo): greater improvement
Dactylitis and enthesitis ([3]; patients with pre-existing dactylitis or enthesitis): improvement
Discontinuations due to AEs ([4]; 20 mg BID): 9%
Discontinuations due to lack of efficacy ([4]; 20 mg BID): 7%
Subjects reporting a serious AE (SAE) ([4]; 20 mg BID): 4 subjects
Primary endpoint, ACR20 at 12 weeks ([4]; 20 mg BID): met
ACR20 at 24 weeks ([4]; 20 mg BID, evaluable subjects, 24 weeks): 40%
Discontinuations due to AEs ([4]; 40 mg QD): 6%
Discontinuations due to lack of efficacy ([4]; 40 mg QD): 0%
Subjects reporting a serious AE (SAE) ([4]; 40 mg QD): 0 subjects
Primary endpoint, ACR20 at 12 weeks ([4]; 40 mg QD): met
ACR20 at 24 weeks ([4]; 40 mg QD, evaluable subjects, 24 weeks): 39.1%
Subjects reporting an SAE in the extension ([4]; active-drug extension, weeks 12-24): 7 subjects
ACR20 at 24 weeks ([4]; placebo subjects switched to 20 mg BID in the extension): 35%
ACR20 at 24 weeks ([4]; placebo subjects switched to 40 mg QD in the extension): 40%
Deaths ([4]; whole study): no deaths
